US6455540B1, “Methods of use of quinolone compounds against anaerobic pathogenic bacteria” (priority 1999, dated 2002)
Values after ≈ are worked out from the molar mass of the structure shown.

Experiments:
Assay in all cases: Agar dilution MIC
Clostridium inocuum = assay type: cell-based, Clostridium innocuum; conditions: Clostridium, 11 isolates
Fusobacterium russii = assay type: cell-based
Fusobacterium varium = assay type: cell-based; conditions: Fusobacterium varium, 17 isolates
[1] = test system: Clostridium clostridioforme; assay type: cell-based; conditions: Clostridium, 11 isolates
Bilophila wadsworthia = assay type: cell-based; conditions: 16 isolates, agar supplemented with pyruvate
Clostridium ramosum = assay type: cell-based; conditions: Thomasclavelia ramosa, 10 isolates
[2] = test system: Fusobacterium spp group 1; assay type: cell-based; conditions: 19 isolates
[3] = test system: Prevotella melaninogenica; assay type: cell-based; conditions: Prevotella melaninogenica, 12 isolates
[4] = test system: Porphyromonas asaccharolyticus; assay type: cell-based, Porphyromonas asaccharolytica; conditions: Porphyromonas, 11 isolates
Prevotella bivia = assay type: cell-based; conditions: Prevotella bivia, 21 isolates
[5] = test system: Anaerobiospirillum thomasii; assay type: cell-based; conditions: Anaerobiospirillum thomasii, 13 isolates
Prevotella intermedia = assay type: cell-based; conditions: 11 isolates
Bacteroides gracilis = assay type: cell-based, Bacteroides gracilis (Campylobacter gracilis); conditions: 11 isolates
[6] = test system: Prevotella heparinolytica; assay type: cell-based; conditions: 16 isolates
Clostridium dfficile = assay type: cell-based, Clostridium difficile; conditions: Clostridium
[7] = test system: Peptostreptococcus prevotii; assay type: cell-based; conditions: Anaerococcus prevotii, read-out: Minimal Inhibitory Concentration 50% (MIC50); 9 isolates
Bacteroides tectum = assay type: cell-based; conditions: 22 isolates
[8] = test system: Peptostreptococcus asaccharolyticus; assay type: cell-based; conditions: Peptoniphilus asaccharolyticus, 11 isolates
Bacteroides ureolyticus = assay type: cell-based; conditions: 17 isolates
Porphyromonas canoris = assay type: cell-based; conditions: Porphyromonas canoris, 10 isolates
[9] = test system: Peptostreptococcus micros; assay type: cell-based; conditions: 12 isolates
Porphyromonas gingivalis = assay type: cell-based; conditions: Porphyromonas gingivalis, 13 isolates
[10] = test system: Peptostreptococcus magnus; assay type: cell-based; conditions: Finegoldia magna, 13 isolates
[11] = test system: Prevotella denticola/loeschii group; assay type: cell-based; conditions: 6 isolates
[12] = test system: Actinomyces odontolyticus; assay type: cell-based; conditions: Schaalia odontolytica, 10 isolates
Actinomyces israelii = assay type: cell-based; conditions: 6 isolates
[13] = test system: Fusobacterium spp. group 2; assay type: cell-based, Fusobacterium mortiferum, necrogenes, ulcerans; conditions: Fusobacterium, 12 isolates
[14] = test system: Anaerobiospirillum succiniciproducens; assay type: cell-based; conditions: 3 isolates
Porphyromonas spp. = assay type: cell-based, Porphyromonas cangingivalis, cansulci, circumdentaria, levii; conditions: Porphyromonas, 11 isolates
[15] = test system: Prevotella buccae-oris group; assay type: cell-based; conditions: Prevotella, 22 isolates
Veillonella spp. = assay type: cell-based; conditions: Veillonella, 24 isolates
Porphyromonas macaccae = assay type: cell-based; conditions: Porphyromonas, 13 isolates
[16] = read-out: Minimal Inhibitory Concentration 90% (MIC90)
[17] = read-out: Minimal Inhibitory Concentration 50% (MIC50)

**Q.** For CC[C@H]1OC(=O)[C@H](C)[C@@H](O[C@H]2C[C@@](C)(OC)[C@@H](O)[C@H](C)O2)[C@H](C)[C@@H](O[C@@H]2O[C@H](C)C[C@H](N(C)C)[C@H]2O)[C@](C)(O)C[C@@H](C)CN(C)[C@H](C)[C@@H](O)[C@]1(C)O [Azithromycin], which MIC90 (Clostridium inocuum; [16]) is on record?
**A.** > 32 µg/mL

**Q.** What about the MIC50 (Clostridium inocuum; [17]) of the same compound?
**A.** > 32 µg/mL

**Q.** What about the “Minimal Inhibitory Concentration Range” value (Fusobacterium russii) of the same compound?
**A.** 0.03 to 32 µg/mL

**Q.** And the MIC50 (Fusobacterium russii; Fusobacterium russii, read-out: Minimal Inhibitory Concentration 50% (MIC50))?
**A.** 0.25 µg/mL (≈ 0.334 µM)

**Q.** And the MIC90 (Fusobacterium russii; Fusobacterium russii, read-out: Minimal Inhibitory Concentration 90% (MIC90))?
**A.** 32 µg/mL (≈ 42.7 µM)

**Q.** What about the MIC50 (Fusobacterium varium; [17]) of the same compound?
**A.** 32 µg/mL (≈ 42.7 µM)

**Q.** And the MIC90 (Fusobacterium varium; [16])?
**A.** > 32 µg/mL

**Q.** What about the MIC90 [1, 16] of the same compound?
**A.** > 32 µg/mL

**Q.** And the MIC50 [1, 17]?
**A.** 16 µg/mL (≈ 21.4 µM)

**Q.** What about the “Minimal Inhibitory Concentration Range” value (Bilophila wadsworthia) of the same compound?
**A.** 1 to 16 µg/mL

**Q.** What about the MIC90 (Bilophila wadsworthia; Bilophila wadsworthia, read-out: Minimal Inhibitory Concentration 90% (MIC90)) of the same compound?
**A.** 16 µg/mL (≈ 21.4 µM)

**Q.** What about the MIC50 (Bilophila wadsworthia; Bilophila wadsworthia, read-out: Minimal Inhibitory Concentration 50% (MIC50)) of the same compound?
**A.** 4 µg/mL (≈ 5.34 µM)

**Q.** And the MIC50 (Clostridium ramosum; [17])?
**A.** 0.25 µg/mL (≈ 0.334 µM)

**Q.** What about the MIC90 (Clostridium ramosum; [16]) of the same compound?
**A.** > 32 µg/mL

**Q.** And the “Minimal Inhibitory Concentration Range” value [2]?
**A.** 0.06 to 32 µg/mL

**Q.** What about the MIC50 ([2]; Fusobacterium, GROUP1, read-out: Minimal Inhibitory Concentration 50% (MIC50)) of the same compound?
**A.** 1 µg/mL (≈ 1.34 µM)

**Q.** What about the MIC90 ([2]; Fusobacterium, GROUP1, read-out: Minimal Inhibitory Concentration 90% (MIC90)) of the same compound?
**A.** 8 µg/mL (≈ 10.7 µM)

**Q.** And the MIC90 [3, 16]?
**A.** 32 µg/mL (≈ 42.7 µM)

**Q.** What about the MIC50 [3, 17] of the same compound?
**A.** 0.25 µg/mL (≈ 0.334 µM)

**Q.** And the MIC50 [4, 17]?
**A.** 0.25 µg/mL (≈ 0.334 µM)

**Q.** What about the MIC90 [4, 16] of the same compound?
**A.** > 32 µg/mL

**Q.** And the MIC90 (Prevotella bivia; [16])?
**A.** 1 µg/mL (≈ 1.34 µM)

**Q.** And the MIC50 (Prevotella bivia; [17])?
**A.** 0.5 µg/mL (≈ 0.668 µM)

**Q.** What about the MIC50 [5, 17] of the same compound?
**A.** 0.5 µg/mL (≈ 0.668 µM)

**Q.** What about the MIC90 [5, 16] of the same compound?
**A.** 1 µg/mL (≈ 1.34 µM)

**Q.** What about the “Minimal Inhibitory Concentration Range” value (Prevotella intermedia) of the same compound?
**A.** 0.03 to 1 µg/mL

**Q.** What about the MIC90 (Prevotella intermedia; Prevotella intermedia, read-out: Minimal Inhibitory Concentration 90% (MIC90)) of the same compound?
**A.** 0.5 µg/mL (≈ 0.668 µM)

**Q.** And the MIC50 (Prevotella intermedia; Prevotella intermedia, read-out: Minimal Inhibitory Concentration 50% (MIC50))?
**A.** 0.125 µg/mL (≈ 0.167 µM)

**Q.** And the “Minimal Inhibitory Concentration Range” value (Bacteroides gracilis)?
**A.** 0.06 to 0.5 µg/mL

**Q.** What about the MIC90 (Bacteroides gracilis; Campylobacter gracilis, read-out: Minimal Inhibitory Concentration 90% (MIC90)) of the same compound?
**A.** 0.5 µg/mL (≈ 0.668 µM)

**Q.** And the MIC50 (Bacteroides gracilis; Campylobacter gracilis, read-out: Minimal Inhibitory Concentration 50% (MIC50))?
**A.** 0.125 µg/mL (≈ 0.167 µM)

**Q.** And the “Minimal Inhibitory Concentration Range” value [6]?
**A.** 0.5 to 1 µg/mL

**Q.** And the MIC90 ([6]; Prevotella heparinolytica, read-out: Minimal Inhibitory Concentration 90% (MIC90))?
**A.** 1 µg/mL (≈ 1.34 µM)

**Q.** And the MIC50 ([6]; Prevotella heparinolytica, read-out: Minimal Inhibitory Concentration 50% (MIC50))?
**A.** 0.5 µg/mL (≈ 0.668 µM)

**Q.** And the MIC50 (Clostridium dfficile; [17])?
**A.** 2 µg/mL (≈ 2.67 µM)

**Q.** And the MIC90 (Clostridium dfficile; read-out: Minimal Inhibitory Concentration 90% (MIC90), 14 isolates)?
**A.** > 32 µg/mL

**Q.** What about the MIC50 [7] of the same compound?
**A.** 32 µg/mL (≈ 42.7 µM)

**Q.** What about the “Minimal Inhibitory Concentration Range” value (Bacteroides tectum) of the same compound?
**A.** 0.5 to 2 µg/mL

**Q.** What about the MIC90 (Bacteroides tectum; Bacteroides pyogenes, read-out: Minimal Inhibitory Concentration 90% (MIC90)) of the same compound?
**A.** 2 µg/mL (≈ 2.67 µM)

**Q.** And the MIC50 (Bacteroides tectum; Bacteroides pyogenes, read-out: Minimal Inhibitory Concentration 50% (MIC50))?
**A.** 1 µg/mL (≈ 1.34 µM)

**Q.** What about the MIC50 [8, 17] of the same compound?
**A.** 4 µg/mL (≈ 5.34 µM)

**Q.** What about the MIC90 [8, 16] of the same compound?
**A.** > 32 µg/mL

**Q.** And the “Minimal Inhibitory Concentration Range” value (Bacteroides ureolyticus)?
**A.** 0.06 to 0.25 µg/mL

**Q.** And the MIC90 (Bacteroides ureolyticus; Campylobacter ureolyticus, read-out: Minimal Inhibitory Concentration 90% (MIC90))?
**A.** 0.25 µg/mL (≈ 0.334 µM)

**Q.** What about the MIC50 (Bacteroides ureolyticus; Campylobacter ureolyticus, read-out: Minimal Inhibitory Concentration 50% (MIC50)) of the same compound?
**A.** 0.06 µg/mL (≈ 0.0801 µM)

**Q.** What about the MIC50 (Porphyromonas canoris; [17]) of the same compound?
**A.** 0.25 µg/mL (≈ 0.334 µM)

**Q.** What about the MIC90 (Porphyromonas canoris; [16]) of the same compound?
**A.** 0.25 µg/mL (≈ 0.334 µM)

**Q.** And the “Minimal Inhibitory Concentration Range” value [9]?
**A.** 0.5 to 1 µg/mL

**Q.** What about the MIC50 ([9]; Parvimonas micra, read-out: Minimal Inhibitory Concentration 50% (MIC50)) of the same compound?
**A.** 0.5 µg/mL (≈ 0.668 µM)

**Q.** What about the MIC90 ([9]; Parvimonas micra, read-out: Minimal Inhibitory Concentration 90% (MIC90)) of the same compound?
**A.** 1 µg/mL (≈ 1.34 µM)

**Q.** What about the MIC50 (Porphyromonas gingivalis; [17]) of the same compound?
**A.** 0.25 µg/mL (≈ 0.334 µM)

**Q.** And the MIC90 (Porphyromonas gingivalis; [16])?
**A.** 0.5 µg/mL (≈ 0.668 µM)

**Q.** What about the MIC50 [10, 17] of the same compound?
**A.** 4 µg/mL (≈ 5.34 µM)

**Q.** What about the MIC90 [10, 16] of the same compound?
**A.** > 32 µg/mL

**Q.** And the “Minimal Inhibitory Concentration Range” value [11]?
**A.** 0.06 to 16 µg/mL

**Q.** And the MIC50 ([11]; Prevotella denticola, read-out: Minimal Inhibitory Concentration 50% (MIC50))?
**A.** 0.5 µg/mL (≈ 0.668 µM)

**Q.** And the MIC90 [12, 16]?
**A.** 0.06 µg/mL (≈ 0.0801 µM)

**Q.** What about the MIC50 [12, 17] of the same compound?
**A.** 0.03 µg/mL (≈ 0.0401 µM)

**Q.** And the “Minimal Inhibitory Concentration Range” value (Actinomyces israelii)?
**A.** 0.06 µg/mL

**Q.** What about the MIC50 (Actinomyces israelii; Actinomyces israelii, read-out: Minimal Inhibitory Concentration 50% (MIC50)) of the same compound?
**A.** 0.06 µg/mL (≈ 0.0801 µM)

**Q.** What about the MIC50 [13, 17] of the same compound?
**A.** 16 µg/mL (≈ 21.4 µM)

**Q.** What about the MIC90 [13, 16] of the same compound?
**A.** 32 µg/mL (≈ 42.7 µM)

**Q.** What about the “Minimal Inhibitory Concentration Range” value [14] of the same compound?
**A.** 0.5 to 1 µg/mL

**Q.** What about the MIC50 ([14]; Anaerobiospirillum succiniciproducens, read-out: Minimal Inhibitory Concentration 50% (MIC50)) of the same compound?
**A.** 0.5 µg/mL (≈ 0.668 µM)

**Q.** And the MIC50 (Porphyromonas spp.; [17])?
**A.** 0.25 µg/mL (≈ 0.334 µM)

**Q.** What about the MIC90 (Porphyromonas spp.; [16]) of the same compound?
**A.** 0.5 µg/mL (≈ 0.668 µM)

**Q.** And the MIC90 [15, 16]?
**A.** 1 µg/mL (≈ 1.34 µM)

**Q.** What about the MIC50 [15, 17] of the same compound?
**A.** 0.5 µg/mL (≈ 0.668 µM)

**Q.** What about the MIC90 (Veillonella spp.; [16]) of the same compound?
**A.** > 32 µg/mL

**Q.** And the MIC50 (Veillonella spp.; [17])?
**A.** 4 µg/mL (≈ 5.34 µM)

**Q.** What about the MIC50 (Porphyromonas macaccae; [17]) of the same compound?
**A.** 0.5 µg/mL (≈ 0.668 µM)

**Q.** And the MIC90 (Porphyromonas macaccae; [16])?
**A.** 0.5 µg/mL (≈ 0.668 µM)
